Laboratory results reported in PubChem BioAssay AID2060885 (Molecular Pharmacology Branch, DTP, NCI, 2025).

Test system: NCI-H23 complex spheroids with HUVEC/MSC, viability
Test: Anticancer human tumor NCI-H23 cell line growth inhibition [RAS];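 note: spheroids exposed to compound for 7 days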;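 for viability, T/C: 100% = DMSO vehicle control viability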
Settings: for IC50: curve of first compound; for viability, T/C: stronger effect = lower value
Procedure, shortened: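 Agents were tested in combination matrices in half-log decrements from a top concentration at or near clinical Cmax (10 microM if undetermined). Targets were multi-cell spheroids of tumour lines plus HUVEC and MSC stromal cells.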

[1] = second compound 0.000949 µM, first compound 0.0316 µM
[2] = second compound 0.000949 µM, first compound 0.1 µM
[3] = second compound 0.000949 µM, first compound 0.316 µM
[4] = second compound 0.000949 µM, first compound 1 µM
[5] = second compound 0.000949 µM, first compound 3.16 µM
[6] = second compound 0.000949 µM, first compound 10 µM
[7] = second compound 0.003 µM, first compound 0.0316 µM
[8] = second compound 0.003 µM, first compound 0.1 µM
[9] = second compound 0.003 µM, first compound 0.316 µM
[10] = second compound 0.003 µM, first compound 1 µM
[11] = second compound 0.003 µM, first compound 3.16 µM
[12] = second compound 0.003 µM, first compound 10 µM
[13] = second compound 0.00949 µM, first compound 0.0316 µM
[14] = second compound 0.00949 µM, first compound 0.1 µM
[15] = second compound 0.00949 µM, first compound 0.316 µM
[16] = second compound 0.00949 µM, first compound 1 µM
[17] = second compound 0.00949 µM, first compound 3.16 µM
[18] = second compound 0.00949 µM, first compound 10 µM
[19] = second compound 0.03 µM, first compound 0.0316 µM
[20] = second compound 0.03 µM, first compound 0.1 µM
[21] = second compound 0.03 µM, first compound 0.316 µM
[22] = second compound 0.03 µM, first compound 1 µM
[23] = second compound 0.03 µM, first compound 3.16 µM
[24] = second compound 0.03 µM, first compound 10 µM
[25] = second compound 0.0949 µM, first compound 0.0316 µM
[26] = second compound 0.0949 µM, first compound 0.1 µM
[27] = second compound 0.0949 µM, first compound 0.316 µM
[28] = second compound 0.0949 µM, first compound 1 µM
[29] = second compound 0.0949 µM, first compound 3.16 µM
[30] = second compound 0.0949 µM, first compound 10 µM
[31] = second compound 0.3 µM, first compound 0.0316 µM
[32] = second compound 0.3 µM, first compound 0.1 µM
[33] = second compound 0.3 µM, first compound 0.316 µM
[34] = second compound 0.3 µM, first compound 1 µM
[35] = second compound 0.3 µM, first compound 3.16 µM
[36] = second compound 0.3 µM, first compound 10 µM

`CC(C)NCC(C(=O)N1CCN(c2ncnc3c2C(C)CC3O)CC1)c1ccc(Cl)cc1` (stereo unspecified) + CCn1c(-c2cc(N3CCN(C)CC3)cnc2C(C)OC)c2c3cc(ccc31)-c1csc(n1)CC(NC(=O)C1CC1C)C(=O)N1CCCC(N1)C(=O)OCC(C)(C)C2 was tested, and the IC50 (second compound 0.000949 µM) was < 31.6 nM, the IC50 (second compound 0.003 µM) was < 31.6 nM and the IC50 (second compound 0.00949 µM) was < 31.6 nM. For the same molecule, the IC50 (second compound 0.03 µM) was < 31.6 nM, the IC50 (second compound 0.0949 µM) was < 31.6 nM and the IC50 (second compound 0.3 µM) was < 31.6 nM. It also gave a viability, T/C [1] of 44%, a viability, T/C [2] of 47.4% and a viability, T/C [3] of 32.9%. For the same molecule, the viability, T/C [4] was 34.7%, the viability, T/C [5] was 26.2% and the viability, T/C [6] was 15.2%. The viability, T/C [7] was 37.9%, the viability, T/C [8] was 27.3% and the viability, T/C [9] was 24.2%. It also gave a viability, T/C [10] of 22.6%, a viability, T/C [11] of 22% and a viability, T/C [12] of 13.8%. It also gave a viability, T/C [13] of 30.8%, a viability, T/C [14] of 31.7% and a viability, T/C [15] of 30.4%. It also gave a viability, T/C [16] of 22.2%, a viability, T/C [17] of 17.1% and a viability, T/C [18] of 10.4%. For the same molecule, the viability, T/C [19] was 29.5%, the viability, T/C [20] was 23.8% and the viability, T/C [21] was 21.5%. It also gave a viability, T/C [22] of 19.6%, a viability, T/C [23] of 12.1% and a viability, T/C [24] of 12.1%. For the same molecule, the viability, T/C [25] was 18.6%, the viability, T/C [26] was 18.6% and the viability, T/C [27] was 17.8%. For the same molecule, the viability, T/C [28] was 17.4%, the viability, T/C [29] was 10.3% and the viability, T/C [30] was 9.96%. It also gave a viability, T/C [31] of 18.1%, a viability, T/C [32] of 15.7% and a viability, T/C [33] of 14.9%. It also gave a viability, T/C [34] of 10.6%, a viability, T/C [35] of 9.62% and a viability, T/C [36] of 9.02%.

For `CC(Nc1ccc2c(c1)OCCn1cc(N3C(=O)OCC3C(F)F)nc1-2)C(N)=O` (stereo unspecified) + CCn1c(-c2cc(N3CCN(C)CC3)cnc2C(C)OC)c2c3cc(ccc31)-c1csc(n1)CC(NC(=O)C1CC1C)C(=O)N1CCCC(N1)C(=O)OCC(C)(C)C2, the IC50 (second compound 0.000949 µM) was < 31.6 nM, the IC50 (second compound 0.003 µM) was < 31.6 nM and the IC50 (second compound 0.00949 µM) was < 31.6 nM. The IC50 (second compound 0.03 µM) was < 31.6 nM, the IC50 (second compound 0.0949 µM) was < 31.6 nM and the IC50 (second compound 0.3 µM) was < 31.6 nM. For the same molecule, the viability, T/C [1] was 38.9%, the viability, T/C [2] was 34.7% and the viability, T/C [3] was 29.4%. It also gave a viability, T/C [4] of 35.1%, a viability, T/C [5] of 33.6% and a viability, T/C [6] of 21.6%. For the same molecule, the viability, T/C [7] was 34.9%, the viability, T/C [8] was 24.6% and the viability, T/C [9] was 25.3%. The viability, T/C [10] was 25.1%, the viability, T/C [11] was 23.1% and the viability, T/C [12] was 17.6%. For the same molecule, the viability, T/C [13] was 31.1%, the viability, T/C [14] was 24.5% and the viability, T/C [15] was 21.1%. For the same molecule, the viability, T/C [16] was 22.5%, the viability, T/C [17] was 23.3% and the viability, T/C [18] was 16.7%. The viability, T/C [19] was 25.5%, the viability, T/C [20] was 19.6% and the viability, T/C [21] was 19%. It also gave a viability, T/C [22] of 19.2%, a viability, T/C [23] of 13.9% and a viability, T/C [24] of 14.5%. The viability, T/C [25] was 16.9%, the viability, T/C [26] was 14.9% and the viability, T/C [27] was 13.6%. The viability, T/C [28] was 15.2%, the viability, T/C [29] was 10% and the viability, T/C [30] was 10.8%. It also gave a viability, T/C [31] of 14%, a viability, T/C [32] of 13.3% and a viability, T/C [33] of 12.8%. The viability, T/C [34] was 13%, the viability, T/C [35] was 11.9% and the viability, T/C [36] was 11.4%.

`O=C(c1ccc(F)c(F)c1Nc1ccc(I)cc1F)N1CC(O)([C@@H]2CCCCN2)C1` + CCn1c(-c2cc(N3CCN(C)CC3)cnc2C(C)OC)c2c3cc(ccc31)-c1csc(n1)CC(NC(=O)C1CC1C)C(=O)N1CCCC(N1)C(=O)OCC(C)(C)C2 was tested, and the IC50 (second compound 0.000949 µM) was < 3.16 nM, the IC50 (second compound 0.003 µM) was < 3.16 nM and the IC50 (second compound 0.00949 µM) was < 3.16 nM. The IC50 (second compound 0.03 µM) was < 3.16 nM, the IC50 (second compound 0.0949 µM) was < 3.16 nM and the IC50 (second compound 0.3 µM) was < 3.16 nM. The viability, T/C (second compound 0.000949 µM, first compound 0.00316 µM) was 40.8%, the viability, T/C (second compound 0.000949 µM, first compound 0.01 µM) was 42.1% and the viability, T/C [1] was 30.3%. It also gave a viability, T/C [2] of 27.7%, a viability, T/C [3] of 14.7% and a viability, T/C [4] of 7.09%. The viability, T/C (second compound 0.003 µM, first compound 0.00316 µM) was 31.5%, the viability, T/C (second compound 0.003 µM, first compound 0.01 µM) was 33.4% and the viability, T/C [7] was 22.9%. It also gave a viability, T/C [8] of 20.1%, a viability, T/C [9] of 10.2% and a viability, T/C [10] of 5.97%. The viability, T/C (second compound 0.00949 µM, first compound 0.00316 µM) was 33.3%, the viability, T/C (second compound 0.00949 µM, first compound 0.01 µM) was 20.2% and the viability, T/C [13] was 19%. For the same molecule, the viability, T/C [14] was 10.2%, the viability, T/C [15] was 5.94% and the viability, T/C [16] was 5.43%. It also gave a viability, T/C (second compound 0.03 µM, first compound 0.00316 µM) of 24%, a viability, T/C (second compound 0.03 µM, first compound 0.01 µM) of 15.2% and a viability, T/C [19] of 10.5%. For the same molecule, the viability, T/C [20] was 7.97%, the viability, T/C [21] was 5.26% and the viability, T/C [22] was 5.71%. For the same molecule, the viability, T/C (second compound 0.0949 µM, first compound 0.00316 µM) was 16.1%, the viability, T/C (second compound 0.0949 µM, first compound 0.01 µM) was 11.9% and the viability, T/C [25] was 8.79%. The viability, T/C [26] was 6.35%, the viability, T/C [27] was 5.88% and the viability, T/C [28] was 5.06%. The viability, T/C (second compound 0.3 µM, first compound 0.00316 µM) was 12.4%, the viability, T/C (second compound 0.3 µM, first compound 0.01 µM) was 9.36% and the viability, T/C [31] was 8.61%. For the same molecule, the viability, T/C [32] was 5.57%, the viability, T/C [33] was 5.66% and the viability, T/C [34] was 6.36%.
